Series [1] can be described thus: In-vivo pharmacokinetic parameters in SD rats. The protocol: Six male SPF grade SD rats or Balb-c mice (Shanghai Sipple-Bikai Laboratory Animal) were divided into two groups, and the tested compounds were prepared into appropriate solutions or suspensions; one group was administered intravenously (with a dose of 1 mg/kg), and the other group was administered orally (with a dose of 5 mg/kg). Blood samples were collected by jugular vein puncture, and each sample was collected with a volume of about 0.2 mL/time point, and heparin sodium was used for anticoagulation. The time points of blood collection were listed below: 5, 15 and 30 min […], 1, 2, 4, 6, 8 and 24 h after administration; the collected blood samples were placed on ice and centrifuged to separate plasma (centrifugation conditions: 8,000 rpm, 6 min, 2 to 8° C.), and the collected plasma was stored at −80° C. before analysis. Plasma samples were analyzed by LC-MS/MS.
The pharmacokinetic parameters such as AUC0-t, AUC0-∞, MRT0-∞, Cmax, Tmax, T1/2 and Vd of the tested compounds and their mean values and standard deviations were calculated by the pharmacokinetic calculation software WinNonlin5.2 non-compartmental model according to the plasma concentration data. In addition, the bioavailability (F) was calculated by the following formula.
For samples with concentrations below the lower limit of quantitation, while pharmacokinetic parameter calculations were performed, samples sampled before Cmax was reached should be calculated as a zero value and samples sampled after Cmax was reached should be calculated as below limit of quantitation (BLQ).

Series [2] is described as follows: In-vivo pharmacokinetic parameters in mice. On the set-up: species or system Balb-c mice. In a few lines:
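Male SD rats or Balb-c mice were dosed intravenously at 1 mg/kg or orally at 5 mg/kg. Jugular-vein plasma was sampled up to 24 h and analysed by LC-MS/MS. Non-compartmental analysis gave AUC, MRT, Cmax, Tmax, T1/2, Vd and oral bioavailability (F).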

Where [3] appears, read: male, rat, plasma, 1 mg/kg, IV, 1 mpk.
The mark [4] stands for this setting: male, rat, plasma, 5 mg/kg, PO, 5 mpk.
Where [5] appears, read: male, Balb-c, mouse, plasma, IV, 1 mg/kg.
Setting [6] is: male, Balb-c, mouse, plasma, PO, 5 mg/kg.

Broadly, the AUC(0-inf) is total exposure, with the tail of the curve extrapolated. Lower therefore signals less exposure. In general, AUC(0-t) refers to exposure summed from dosing to a finite time, without extrapolation to infinity. A low value points to low exposure. For orientation: MRT inf means the average time that molecules of a dose stay in the body. One may read the clearance as a measure of how efficiently the substance is removed, as volume per time. A word on the half-life: it is how long it takes for the measured level to halve. As usually defined, the Cmax is the peak of the concentration-time curve. Usually Tmax stands for the time from dosing to the highest level.

`COc1cc(F)cc([C@@H](CO)NC(=O)[C@@H](C)N2Cc3ccc(-c4nc(NC5CCOCC5)ncc4F)c(F)c3C2=O)c1` [Embodiment 40]: in series [1] (PO 5 mpk vs IV 1 mpk), the F was 29%. In series [1] (setting [3]), this molecule had an AUC(0-inf) of 0.304 µM·h, an AUC(0-t) of 0.303 µM·h, an MRT inf of 12 min and a clearance of 94 mL/min/kg. Further, the half-life in series [1] (setting [3]) was 18 min. Further, in series [1] (male, rat, plasma, 1 mg/kg, IV, 1 mpk, read-out: Vss), the Vd was 0.9 L/kg. Besides, in series [1] (setting [4]), the AUC(0-inf) was 0.436 µM·h, the exposure AUC(0-t) came out at 0.432 µM·h, the Cmax stood at 476 nM and the Tmax was 18 min. Further, the half-life in series [1] (setting [4]) was 66 min. The same molecule displayed a F in series [2] (PO 5 mg/kg vs IV 1 mg/kg) of 59%. In series [2] (setting [5]), this molecule yielded an AUC(0-inf) of 0.368 µM·h, an AUC(0-t) of 0.365 µM·h, an MRT inf of 12 min and a clearance of 78 mL/min/kg. The half-life in series [2] (setting [5]) was 36 min. Besides, in series [2] (male, Balb-c, mouse, plasma, IV, 1 mg/kg, read-out: Vss), the Vd came out at 1 L/kg. In series [2] (setting [6]), the AUC(0-inf) was 1.09 µM·h, the AUC(0-t) came to 1.08 µM·h, the Cmax was determined as 1200 nM and the Tmax is 18 min. This molecule showed a half-life in series [2] (setting [6]) of 66 min.

(Values after patent US20230312564A1, “AROMATIC RING-LACTAM COMPOUND, PREPARATION METHOD THEREFOR AND USE THEREOF” (SHANGHAI RINGENE BIOPHARMA CO., LTD., priority 2020, published 2023).)
